Laboratory results: ChEMBL document CHEMBL3507680, “University of Dundee, Gates Library screen for HepG2 cell viability”

test: Human HepG2 cell viability assay in 384 well format; assay type: toxicity, cell-based; set-up: dose 125 nL, time 70.5 hour; concentration not given beside the values; settings: HepG2 cells, read-out: Inhibition

First: CC(=O)N1CCC(c2cccc(NC3CCOCC3)n2)CC1
Second: O=C(Nc1ccccc1C(=O)N1CCCC1)NC1CCOCC1
The cytotoxicity at 70.5 h of the first is higher: -1.75% for the first, -7.16% for the second.

Compared with `Cc1cnn(CC(C)Nc2nc3ccccc3o2)c1` (stereo not drawn), `CC(Cn1cccn1)NC(=O)N1CCN(Cc2cccnc2)CC1` (stereo not drawn) is lower in cytotoxicity at 70.5 h: 24.3% for the first, -7.03% for the second.

Compared with `O=C(NCc1cn2c(n1)CN(Cc1nccs1)CC2)C1CCC1`, `CCn1cc(CN2CCCN(C(=O)CCCn3cncn3)CC2)cn1` is higher in cytotoxicity at 70.5 h: -6.31% for the first, 1.08% for the second.

Going from `CCN(CC)C(=O)CN1CCc2nc(C3CCNCC3)nc(NC)c2C1` to `COCC(=O)N1CCc2nc(C)nc(NC(C)C)c2CC1`, the cytotoxicity at 70.5 h falls from -4.13% to -6.06%.

Going from `O=C(c1ccc[nH]1)N1CCc2c(COCc3ccncc3)cncc2C1` to `COCCN1C(=O)C[C@H]2[C@H]1CCN2C(=O)c1ccc[nH]1`, the cytotoxicity at 70.5 h falls from -3.15% to -10.2%.

Going from `CCCOc1ccccc1CCCNc1ncnc2oc(C)nc12` to `Cc1noc(CCCC(=O)NCCc2cc3ccccc3[nH]2)n1`, the cytotoxicity at 70.5 h rises from -7.16% to -6.92%.

First: CN(Cc1noc(C2CC2)n1)C1CCN(Cc2ncc[nH]2)C1 (stereo not drawn)
Second: CCc1noc(CN2CCC(c3ccnn3CCO)CC2)n1
The cytotoxicity at 70.5 h of the first is higher: 12.2% for the first, -5.37% for the second.

Compared with `CC1CCCN(CCCNC(=O)c2ccc(N(C)S(C)(=O)=O)cc2Cl)C1` (stereo not drawn), `Cn1ncc(N2CCC(CNC(=O)[C@@H](N)c3ccccc3)CC2)cc1=O` is lower in cytotoxicity at 70.5 h: -2.33% for the first, -4.64% for the second.

First: O=C(c1[nH]nc(C2CC2)c1Cl)N1CCN(C2CC2)CC1
Second: CNc1cncc(C2CCN(C(=O)c3coc(C)n3)CC2)n1
The cytotoxicity at 70.5 h of the first is lower: 0.431% for the first, 24.2% for the second.

First: O=C(COCC(=O)N1CCCCCC1)NCc1cccc(Br)c1
Second: O=C(c1cn(-c2ccc(C(F)(F)F)cn2)nn1)N1CCCCCC1
The cytotoxicity at 70.5 h of the first is higher: 0.154% for the first, -3.98% for the second.

First: CC(C)(C)c1csc(CCNC(=O)C(c2ccccc2)n2cnnn2)n1 (stereo not drawn)
Second: CCC(C(=O)NC(C)(C)C)n1ccc2ncccc2c1=O (stereo not drawn)
The cytotoxicity at 70.5 h of the first is higher: -0.915% for the first, -17.5% for the second.

Going from `COc1cccc(-c2n[nH]cc2C(=O)NC(C)c2nc(C(C)C)no2)c1` (stereo not drawn) to `COc1cc(Cl)ccc1C(=O)NCc1n[nH]c(C)n1`, the cytotoxicity at 70.5 h rises from -8.56% to 1.46%.

First: CCOC(=O)c1sc(NC(=O)C(C)C)c(C#N)c1C
Second: CCOc1ncccc1NC(=O)c1cc(C)sc1C
The cytotoxicity at 70.5 h of the first is higher: -5.23% for the first, -11% for the second.

Compared with `COc1c(C(=O)N2CCOCC2)cnc2c1c(C)nn2C`, `Cc1cc(C)cc(NC(=O)c2cnc(N3CCN(C)CC3)nc2C)c1` is lower in cytotoxicity at 70.5 h: 0.987% for the first, -0.093% for the second.

Going from `CN(C)CCN(Cc1cccc(F)c1)C(=O)c1ccn(C)c(=O)c1` to `Cc1ccc(F)cc1S(=O)(=O)N(C)CC(N)=O`, the cytotoxicity at 70.5 h falls from -2.08% to -11.9%.

Compared with `CC(=O)NCCNC(=O)C(c1ccccc1C)N(C)C` (stereo not drawn), `CN(C)CCNCCC(Cc1ccccc1)C1CCOC(C)(C)C1` (stereo not drawn) is lower in cytotoxicity at 70.5 h: 12.4% for the first, -8.7% for the second.

First: CN(C(=O)COc1ccc(F)cc1)[C@@H]1CC[C@@H](n2ccnc2)[C@@H]1O
Second: Cc1ccc(OCCCNC(=O)Cc2nc3ncccn3n2)cc1
The cytotoxicity at 70.5 h of the first is higher: -4.21% for the first, -13.7% for the second.

Compared with `CC(C)Cc1nc(CSCC(=O)N2CCC(C)CC2)no1`, `CCN(Cc1noc(CC(C)C)n1)Cc1ccccc1C` is lower in cytotoxicity at 70.5 h: 3.72% for the first, -1.58% for the second.

Compared with `CCc1nc2n(n1)CC(NCc1nnc(C(C)C)o1)CC2` (stereo not drawn), `CCn1nccc1CNc1nc(N)nc2c1nc(C)n2C` is lower in cytotoxicity at 70.5 h: 19.3% for the first, 6.56% for the second.

Compared with `COCCc1ncc(CN2C[C@H](C3CC3)[C@@H](N)C2)cn1`, `CCn1cnnc1CCNS(=O)(=O)N1CCCC1c1ccco1` (stereo not drawn) is lower in cytotoxicity at 70.5 h: -8.11% for the first, -9.13% for the second.

First: CCOCc1ccccc1NC(=O)NC1CCN(CC(F)(F)F)C1 (stereo not drawn)
Second: O=C(NCCC1CCN(CC(F)(F)F)CC1)C1CCCO1 (stereo not drawn)
The cytotoxicity at 70.5 h of the first is lower: -6.42% for the first, -1.77% for the second.

Compared with `CN(C(=O)OC(C)(C)C)C1CCN(C(=O)c2ccc(Cl)o2)C1` (stereo not drawn), `CCC(=O)N1CC[C@H]2C(=O)N(Cc3ccc(OC)cc3)CCO[C@H]2C1` is higher in cytotoxicity at 70.5 h: -3.64% for the first, 34.1% for the second.

Compared with `COc1ccccc1N1CCC(CNCc2c(C)nn(C)c2OC)C1` (stereo not drawn), `Cn1ncc2c(NCC3CCCN3c3cccnn3)ncnc21` (stereo not drawn) is lower in cytotoxicity at 70.5 h: 0.53% for the first, -3.62% for the second.

Compared with `O=C(NCc1nnc2n1CCC2)c1cn(-c2cccc(Br)c2)nn1`, `CCc1nnc2n1CCN(C(=O)c1ccnc(N(C)C)c1)C2` is higher in cytotoxicity at 70.5 h: -6.53% for the first, -2.04% for the second.

Compared with `O=S(=O)(CCCN1CCCC1Cn1cncn1)c1ccccc1` (stereo not drawn), `O=C1CSc2ccc(C(=O)N3CCCC(n4cccn4)C3)cc2N1` (stereo not drawn) is lower in cytotoxicity at 70.5 h: 11.6% for the first, -0.55% for the second.

Going from `Cc1nnc(N2CCC(CN(C)C(C)C)CC2)c(C#N)c1C` to `CC(C)N1CCC(N2CCCC(C(=O)NCC3(O)CCCCC3)C2)CC1` (stereo not drawn), the cytotoxicity at 70.5 h falls from 20.7% to -3.9%.

Compared with `CC(=O)N1CCC(c2ccnc(Nc3cnccn3)n2)C1` (stereo not drawn), `CC(C)(C)c1ncc2c(n1)CN(C(=O)c1ccc(C#N)nc1)C2` is higher in cytotoxicity at 70.5 h: -22.3% for the first, 11.4% for the second.

Going from `COC1(CNC(=O)c2ccc3nsnc3c2)CCSC1` (stereo not drawn) to `Cc1[nH]c2ccc(CNc3cc(C#N)ccn3)cc2c1C`, the cytotoxicity at 70.5 h rises from -18.3% to -4.75%.

First: CC(C)(C)c1nnc(NCc2ccc(F)cc2)o1
Second: Cc1cc(S(=O)(=O)N2CC[C@@H](O)C2)c(Cl)cc1F
The cytotoxicity at 70.5 h of the first is higher: -2.71% for the first, -6.21% for the second.
